Patent US20230303494A1, “BENZYLAMINE DERIVATIVE, PREPARATION METHOD THEREFOR AND USE THEREOF” (ACADEMY OF MILITARY MEDICAL SCIENCES, priority 2020, published 2023)

Legend:
[1] = biological target: PD-1/PD-L1 interaction (Homo sapiens (Human), UniProt Q9NZQ7); assay: PD-1/PD-L1 Binding Assay kit (Cisbio), HTRF; conditions: 8-10 concentrations, read-out: IC50 of inhibition of PD-1/PD-L1 interaction
[2] = biological target: human PD-L1 (Homo sapiens (Human), UniProt Q9NZQ7); assay: Biofilm interferometry (BLI, OctetRED) binding to human PD-L1/AVI; conditions: 1:1 binding model
human PD-L1, sequence (Q9NZQ7 19-290): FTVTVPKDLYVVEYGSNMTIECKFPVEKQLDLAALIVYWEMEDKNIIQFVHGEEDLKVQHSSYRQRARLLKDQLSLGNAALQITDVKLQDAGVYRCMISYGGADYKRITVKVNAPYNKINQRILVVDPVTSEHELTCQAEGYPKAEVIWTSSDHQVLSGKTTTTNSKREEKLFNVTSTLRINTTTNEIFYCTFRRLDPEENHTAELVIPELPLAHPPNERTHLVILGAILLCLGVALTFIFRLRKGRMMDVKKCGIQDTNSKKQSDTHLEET
Method: In the experiment, the instrument OctectRED of Fortebio Company based on biofilm interferometry (BLI) technology was used to capture human PD-L1/AVI with SA chips. The concentration of antigen PD-L1/AVI was diluted to 10 μg/mL with running buffer (PBS+0.02% Tween-20+2% DMSO), and the loading time was 300 s; similarly, the analyte was also diluted to the corresponding concentrations (20 nM, 10 nM, 5 nM, 2.5 nM, 1.25 nM, 0.625 nM, 0.3125 nM) with running buffer in gradient manner, and a buffer blank control group was set at the same time. The binding time of human PD-L1/AVI to the analyte was 180 s, and the dissociation time was 300 s; the chip was regenerated with 10 mM glycine HCl, pH 1.7 solution and repeated 5-second pulse for 3 times. The data were fitted to a 1:1 binding model to determine the equilibrium dissociation constant KD.

[3] = system: Human peripheral blood mononuclear cells (PBMCs); assay: Promotion of IFN-γ secretion in PBMCs treated with anti-CD3/anti-CD28 and PDL1/FC fusion protein (ELISA); format: cell-based; conditions: for IFN-γ / Increase rate of IFN-γ expression vs PDL1 treatment: hPD-L1 10.0 μg/mL, 72 h
Method: Human peripheral blood mononuclear cells (PBMCs) were isolated from 10-15 ml of whole blood of healthy volunteers using experimental human lymphocyte separation medium (TBD sciences). The cells were washed twice with normal saline and resuspended in buffer (RPMI 1640 complete medium containing 10% FBS, SIGMA) to count the cell density. The PBMCs were dispersed and placed in a 96-well plate, 1×10^5 cells and 50 μL of buffer per well. Anti-CD3 antibody (SIGMA) and anti-CD28 antibody (SIGMA) were mixed at a ratio of 1:1 to obtain an antibody mixture. The antibody mixture was added to the wells to ensure that the final concentration of antibody was 0.8 μg/mL. At the same time, PDL1/FC fusion protein (SINO BIOLOGICAL) was added to reach a final concentration of 10.0 μg/mL, and the compound to be tested was diluted with buffer and added to the wells to reach a final concentration of 0.1 μM or 1 μM. The mixed system was incubated at 37° C. and 5% CO2 for 72 h. The supernatant was collected, and the expression level of IFN-γ was measured by ELISA MAXTM Human IFN-γ Standard Kit (BioLegend), and the increase rate was calculated. Increase rate (%)=(expression amount of compound treatment−expression amount of PDL1 treatment)/expression amount of PDL1 treatment×100%

[4] = system: Raji cells; assay: Cytotoxicity, Cell Titer-Glo, Raji cells; format: cell-based; conditions: Homo sapiens, 24 hours incubation, read-out: Raji cells IC50 (cell death)
Method: (§1) The raji (ATCC), raw (ATCC) and PBMCs cells were suspended in buffer (RPMI 1640 complete medium containing 10% FBS, SIGMA), respectively, and the cell density was counted. The cells were transferred to wells of a 96-well plate, ensuring that the cell density of each well was 1×10^4 cells/well, and incubated for 24 hours at 37° C., 5% CO2 with compounds at different concentrations (100 μM, 50 μM, 25 μM, 12.5 μM, 6.25 μM and 3.125 μM) and buffer control solution (0.2% DMSO). To each well, 100 μL of Cell Titer-Glo Luminescent Solution (Promega) was added and shaken for 10 minutes at room temperature, and then GloMax® Navigator System was used to measure the system […], and the cell death rate was calculated. Cell death rate (%)=(1−RLUcompound/RLUcontrol)×100%, and IC50 was determined from the inhibition curve.

[5] = system: Raw cells; assay: Cytotoxicity, Cell Titer-Glo, Raw cells; format: cell-based; conditions: 24 hours incubation; read-out: Raw cells IC50 (cell death)
Method: as §1

[6] = system: PBMCs cells; assay: Cytotoxicity, Cell Titer-Glo, PBMCs cells; format: cell-based; conditions: Homo sapiens, PBMC; 24 hours incubation; read-out: PBMCs cells IC50 (cell death)
Method: as §1

[7] = system: colon cancer cell line MC38 (mouse PD-L1 knockout, human PD-L1 knockin); assay: Antitumor efficacy in vivo in PD-1 humanized mice inoculated with PD-L1 humanized MC38 cells; conditions: 15 mg/kg intraperitoneal injection once per day for three weeks, compared with the control group
From the text: Based on the mechanism that PD-1/PD-L1 inhibitors activated the immune system to achieve anti-tumor effects by interfering with the interaction of PD-1/PD-L1, the animal models used in vivo efficacy experiments must be animals with healthy immune systems; in addition, the species differences of PD-1/PD-L1 between animals and humans are considered. Therefore, the in vivo antitumor pharmacodynamics evaluation model of the present invention adopted PD-1 humanized mice, and the inoculated tumors were PD-L1 humanized tumor cells. This evaluation model could more accurately reflect the in vivo efficacy of the compound.
24 PD-1 humanized mice (full name of strain: C57BL/6J-Pdcd1^em1(hPDCD1)/Smoc) about 6 weeks old were purchased from Shanghai Southern Model Animal Center, and placed in SPF grade animal breeding room for observation for 1 to 2 weeks. After the animals were adapted to the raising environment, the genetically engineered colon cancer cell line MC38 (mouse PD-L1 knockout, human PD-L1 knockin) was subcutaneously inoculated to the mice near the hind leg groin, and the inoculated cell volume was 1×10^6 cells per mouse. […] During the experiment, the tumor size and mouse body weight were measured and recorded, and the mice were sacrificed at the end of the experiment. […]

PD-1/PD-L1 interaction, sequence (Q9NZQ7 19-238): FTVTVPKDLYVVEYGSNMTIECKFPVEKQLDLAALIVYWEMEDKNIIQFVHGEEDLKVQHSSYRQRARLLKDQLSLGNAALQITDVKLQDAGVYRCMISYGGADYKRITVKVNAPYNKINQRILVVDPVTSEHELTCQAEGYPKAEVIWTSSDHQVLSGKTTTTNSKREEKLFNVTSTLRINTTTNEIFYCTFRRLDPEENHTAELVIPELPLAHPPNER

IC50 [1]: 12 nM
Kd [2]: 0.0162 nM
kon [2]: 2.17e+06 M⁻¹ s⁻¹
koff ([2]; read-out: Kdis): 3.53e-05 s⁻¹
SMILES: Cc1cc(CN[C@H](CO)C(=O)O)c(OCc2cncc(C#N)c2)cc1NCc1cccc(-c2ccccc2)c1C [Compound 5]
IFN-γ ([3]; compound 0.1 μM): 38300 pg/mL
Increase rate of IFN-γ expression vs PDL1 treatment ([3]; compound 0.1 μM): 79.8%
IFN-γ ([3]; compound 1.0 μM): 42400 pg/mL
Increase rate of IFN-γ expression vs PDL1 treatment ([3]; compound 1.0 μM): 99.1%
effect on promoting IFN-γ secretion at the cellular level ([3]; in words, better than that of BMS202): significant effect on promoting IFN-γ secretion
IC50 [4]: > 100000 nM
IC50 [5]: > 100000 nM
IC50 [6]: > 100000 nM
growth of tumors [7]: significantly inhibit the growth of tumors
